Assay results reported in paper PMC6958387, “Biological Evaluation of Arylsemicarbazone Derivatives as Potential Anticancer Agents” (Pharmaceuticals, 2019).

Experiments:
[1] = system: HEp-2; test: MTT cytotoxicity, 72 h; assay type: cell-based, human
Experimental: (§1) The cytotoxicity assessment was performed against three human cancer cell lines in suspension (K562, HL-60 and MOLT-4) and four adhered (HEp-2, NCI-H292, HT-29 and MCF-7).
(§2) The cells were obtained from the Cell Bank of Rio de Janeiro and maintained in the Laboratory of Cell Culture of the Department of Antibiotics of the Federal University of Pernambuco. The lines K562 (myeloblastic leukaemia), HL-60 (promyelocytic leukemia) and MOLT-4 (lymphoblastic leukemia) were cultured in RPMI 1640 medium and the lines HEp-2 (larynx carcinoma), NCI-H292 (lung carcinoma), HT-29 (colon adenocarcinoma) and MCF-7 (breast adenocarcinoma) were cultured in DMEM medium, supplemented with 10% fetal bovine serum, 2 mM glutamine, 100 U/mL penicillin and 100 μg/mL streptomycin (Gibco™ Life Technologies), at 37 °C and 5% CO2.
(§3) The evaluation of the cytotoxicity of the compounds was performed by the method of 3-(4,5-dimethyl-2-thiazolyl)-2,5-diphenyl-2H-tetrazolium bromide (MTT) (Sigma Aldrich Co., St. Louis, MO, USA). To perform the assay the cells were seeded in 96-well plates at the following concentrations: HL-60 and K562 (0.3 × 10^6 cells/mL); MOLT-4 and PBMC (10^6 cells/mL); NCI-H292, HT-29, HEp-2 e MCF-7 (10^5 cells/mL). Briefly, the compounds previously dissolved in DMSO (dimethylsulfoxide, Vetec, São Paulo, Brazil), were diluted in medium and added to each well at the desired concentrations. For the calculation of the concentration that inhibits 50% of cell growth (IC50) the compounds were serially diluted to obtain the final concentrations between 0.19–25 μg/mL. Doxorubicin was used as the standard in the concentration range between (0.078–10 μg/mL). After 72 h of contact of the cells with the compounds, it was added to each well 25 μL of MTT solution (5 mg/mL). Plates were left for another 3 h in incubator at 37 °C and at the end of that period the supernatant was aspirated. To perform the reading, 100 μL of DMSO was added in each well for the dissolution of the formazan crystals. The amount of formazan was measured by reading the plate at 560 nm absorbance. The IC50 was calculated from the nonlinear regression in the Prisma 7.0 software (GraphPad, San Diego, CA, USA). Each sample was tested in triplicate in three independent experiments.

[2] = system: HL-60; test: MTT cytotoxicity, 72 h; assay type: cell-based, human; conditions: MTT, 72 h of incubation
Experimental: as §1, §2, §3

[3] = system: HT-29; test: MTT cytotoxicity, 72 h; assay type: cell-based, human
Experimental: as §1, §2, §3

[4] = system: K562; test: MTT cytotoxicity, 72 h; assay type: cell-based, human
Experimental: as §1, §2, §3

[5] = system: MCF-7; test: MTT cytotoxicity, 72 h; assay type: cell-based, human
Experimental: as §1, §2, §3

[6] = system: MOLT-4; test: MTT cytotoxicity, 72 h; assay type: cell-based, human
Experimental: as §1, §2, §3

[7] = system: NCI-H292; test: MTT cytotoxicity, 72 h; assay type: cell-based, human
Experimental: as §1, §2, §3

[8] = system: Peripheral Blood Mononuclear Cells (PBMCs); test: MTT cytotoxicity in normal cells, 72 h; assay type: cell-based, human; conditions: 72 h of incubation
Experimental: In order to evaluate the cytotoxic potential in normal cells, all the derivatives were tested against Peripheral Blood Mononuclear Cells (PBMCs) and the most promising compounds were again compounds 3c and 4a, which offered more selectivity against the cancer cells.
Mononuclear cells were obtained from the peripheral blood of healthy volunteers by heparin tube collection and isolated by Ficoll-Histopaque gradient centrifugation. After centrifugation, the cells were harvested, washed and resuspended in RPMI 1640 medium supplemented with 20% fetal bovine serum, 2 mM glutamine, 100 U/mL penicillin and 100 μg/mL streptomycin (Gibco™ Life Technologies, Waltham, MA, USA). The phytohemagglutinin mitogen 2% was also added into the culture medium. After that, using the neubauer chamber, the cells were counted and plated in a 96-well plate at a concentration of 10^6 cells/mL and then were maintained for overnight under incubation at 37 °C and 5% CO2 [65].
as §3

[9] = biological target: CDK2/CyclinA (Homo sapiens, UniProt P24941); test: Kinase inhibition assay (ADP-Glo); assay type: biochemical; conditions: 10 µM ATP
Experimental: HsCDK2/CyclinA (human, cyclin-dependent kinase-2, kindly provided by Dr. A. Echalier-Glazer, Leicester, UK) was assayed in buffer A with 0.8 µg/µL of histone H1 as substrate.

[10] = biological target: T1, CDK5/p25 (Homo sapiens, UniProt Q00535); test: Kinase inhibition assay (ADP-Glo); assay type: biochemical; conditions: 10 µM ATP
T1 construct: made in house; host or cells: bacteria
Experimental: HsCDK5/p25 (human, recombinant, expressed in bacteria) was assayed in buffer A, with 0.8 µg/µL of histone H1 as substrate.

[11] = biological target: T2, HASPIN (Homo sapiens, UniProt Q8TF76); test: Kinase inhibition assay (ADP-Glo); assay type: biochemical; conditions: 10 µM ATP
T2 construct: kinase domain, amino acids 470 to 798; made in house; host or cells: bacteria
T2 sequence (Q8TF76 470-798): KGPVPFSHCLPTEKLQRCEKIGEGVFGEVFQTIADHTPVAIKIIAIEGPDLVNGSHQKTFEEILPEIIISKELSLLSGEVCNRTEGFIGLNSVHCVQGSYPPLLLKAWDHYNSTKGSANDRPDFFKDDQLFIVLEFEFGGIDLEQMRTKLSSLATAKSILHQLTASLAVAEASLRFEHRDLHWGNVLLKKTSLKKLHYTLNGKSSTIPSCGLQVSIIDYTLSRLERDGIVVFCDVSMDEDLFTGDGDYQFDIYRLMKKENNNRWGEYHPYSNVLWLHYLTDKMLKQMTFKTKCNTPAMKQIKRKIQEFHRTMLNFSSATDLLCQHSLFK
Experimental: HsHASPIN (human, kinase domain, amino acids 470 to 798, recombinant, expressed in bacteria) was assayed in buffer A with 0.007 µg/µL of Histone H3 (1-21) peptide ([…]) as substrate;

[12] = biological target: T3, PIM1 (Homo sapiens, UniProt P11309); test: Kinase inhibition assay (ADP-Glo); assay type: biochemical; conditions: 10 µM ATP
T3 construct: made in house; host or cells: bacteria
Experimental: HsPIM1 (human proto-oncogene, recombinant, expressed in bacteria) was assayed in buffer B with 0.8 µg/µL of histone H1 (Sigma #H5505) as substrate.

[13] = biological target: T4, CLK1 (Mus musculus, UniProt P22518); test: Kinase inhibition assay (ADP-Glo); assay type: biochemical; conditions: 10 µM ATP
T4 construct: made in house; host or cells: bacteria
Experimental: MmCLK1 (from Mus musculus, recombinant, expressed in bacteria) was assayed in buffer A with 0.027μg/µL of the following peptide: GRSRSRSRSRSR as substrate.

[14] = biological target: T5, DYRK1A (Rattus norvegicus, UniProt Q63470); test: Kinase inhibition assay (ADP-Glo); assay type: biochemical; conditions: 10 µM ATP
T5 construct: amino acids 1 to 499 including the kinase domain; made in house; host or cells: bacteria
Experimental: RnDYRK1A (Rattus norvegicus, amino acids 1 to 499 including the kinase domain, recombinant, expressed in bacteria, DNA vector kindly provided by Dr. W. Becker, Aachen, Germany) was assayed in buffer A with 0.033 μg/µL of the following peptide: KKISGRLSPIMTEQ as substrate.

[15] = biological target: CK1δ/ε; test: Kinase inhibition assay (ADP-Glo); assay type: biochemical, Sus scrofa domesticus; conditions: 10 µM ATP
Experimental: SscCK1δ/ε (Sus scrofa domesticus, casein kinase 1δ/ε, affinity purified from porcine brain) was assayed in buffer A, with 0.022 μg/μL of the following peptide: RRKHAAIGSpAYSITA (“Sp” stands for phosphorylated serine) as CK1-specific substrate.

[16] = biological target: GSK3 α/β; test: Kinase inhibition assay (ADP-Glo); assay type: biochemical, Sus scrofa domesticus; conditions: 10 µM ATP
Experimental: SscGSK-3α/β (Sus scrofa domesticus, glycogen synthase kinase-3, affinity purified from porcine brain) was assayed in buffer A with 0.010 µg/µL of GS-1 peptide, a GSK-3-selective substrate ([…]pEDEEE, “Sp” stands for phosphorylated serine).

[17] = biological target: T6, AURKB (Homo sapiens, UniProt Q96GD4); test: Kinase inhibition assay (ADP-Glo); assay type: biochemical; conditions: 10 µM ATP
T6 construct: purchased SignalChem A31-10G; host or cells: Sf9 insect cells (baculovirus)

[18] = biological target: CDK9/CyclinT (Homo sapiens, UniProt P50750); test: Kinase inhibition assay (ADP-Glo)
Experimental: The protein kinases studied were: CDK2/CyclinA, CDK5/p25, CDK9/CyclinT (cyclin-dependent kinases), HASPIN (haploid germ cell-specific nuclear protein kinase), PIM1 (PIM family kinase 1), CLK1 (cdc2-like kinase 1), DYRK1A (dual-specificity tyrosine phosphorylation regulated kinase), CK1δ/ε (casein kinase 1 isoforms), GSK3α/β (glycogen synthase kinase 3) and AURKB (aurora kinase B). Initially, all compounds were first tested at 10 μM. […] Compounds displaying more than 50% inhibition at 10 μM were next tested over a wide range of concentrations (usually 0.01–10 μM), and IC50 values were determined from the dose-response curves (Sigma-Plot).
Kinase activities were assayed in appropriate kinase buffer, with either protein or peptide as substrate in the presence of 10 µM ATP in a final volume of 6 µL using the ADP-Glo^TM assay kit (Promega, Madison, WI, USA, as described in Zegzouti et al. [66]). Controls were performed with appropriate dilutions of dimethylsulfoxide (solvent of the tested compounds).
The buffers used for kinase assays are the following: (A) 10 mM MgCl2, 1 mM EGTA, 1 mM DTT, 25 mM Tris-HCl pH 7.5, 50 µg/mL heparin; (B) 25 mM MOPS, pH 7.2, 12.5 mM -glycerolphosphate, 25 mM MgCl2, 5 mM EGTA, 2 mM EDTA, 0.25 mM DTT.

[19] = Homo sapiens, HEp-2, 72 h of incubation
[20] = Homo sapiens, HT-29, 72 h of incubation
[21] = Homo sapiens, K562, 72 h of incubation
[22] = Homo sapiens, MCF7, 72 h of incubation
[23] = Homo sapiens, MOLT-4, 72 h of incubation
[24] = Homo sapiens, NCI-H292, 72 h of incubation

CDK9/CyclinT, sequence (P50750 whole entry): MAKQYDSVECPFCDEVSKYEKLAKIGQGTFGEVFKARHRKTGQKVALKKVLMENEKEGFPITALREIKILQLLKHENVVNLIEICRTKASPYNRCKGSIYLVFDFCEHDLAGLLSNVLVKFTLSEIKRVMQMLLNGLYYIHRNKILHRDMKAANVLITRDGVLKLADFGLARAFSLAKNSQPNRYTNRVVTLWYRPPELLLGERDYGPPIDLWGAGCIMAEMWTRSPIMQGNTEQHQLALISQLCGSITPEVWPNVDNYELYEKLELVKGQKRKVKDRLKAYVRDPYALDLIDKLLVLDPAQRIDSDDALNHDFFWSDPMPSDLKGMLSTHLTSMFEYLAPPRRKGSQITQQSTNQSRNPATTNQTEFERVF
CDK9/CyclinT, sequence (O60563 whole entry partner): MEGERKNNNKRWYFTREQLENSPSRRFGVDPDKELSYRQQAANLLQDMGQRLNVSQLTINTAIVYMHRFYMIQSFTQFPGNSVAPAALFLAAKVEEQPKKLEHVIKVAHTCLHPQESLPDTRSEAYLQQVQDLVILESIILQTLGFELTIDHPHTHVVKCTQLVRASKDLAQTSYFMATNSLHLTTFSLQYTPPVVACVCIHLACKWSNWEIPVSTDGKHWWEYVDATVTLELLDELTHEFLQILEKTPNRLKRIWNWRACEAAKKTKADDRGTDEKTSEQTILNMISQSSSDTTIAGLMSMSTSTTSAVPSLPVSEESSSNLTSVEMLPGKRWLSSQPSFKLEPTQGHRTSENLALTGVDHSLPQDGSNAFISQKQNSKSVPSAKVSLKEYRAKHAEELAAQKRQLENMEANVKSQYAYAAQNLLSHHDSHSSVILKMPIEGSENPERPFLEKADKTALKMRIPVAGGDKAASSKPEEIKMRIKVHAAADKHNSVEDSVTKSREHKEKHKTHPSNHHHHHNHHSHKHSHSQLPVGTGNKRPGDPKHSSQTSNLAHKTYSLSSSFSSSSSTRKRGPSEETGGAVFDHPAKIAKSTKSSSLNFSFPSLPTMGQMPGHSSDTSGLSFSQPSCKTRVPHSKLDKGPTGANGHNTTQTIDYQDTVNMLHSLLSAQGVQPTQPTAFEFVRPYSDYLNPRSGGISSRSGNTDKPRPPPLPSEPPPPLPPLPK
T3 sequence (P11309 whole entry): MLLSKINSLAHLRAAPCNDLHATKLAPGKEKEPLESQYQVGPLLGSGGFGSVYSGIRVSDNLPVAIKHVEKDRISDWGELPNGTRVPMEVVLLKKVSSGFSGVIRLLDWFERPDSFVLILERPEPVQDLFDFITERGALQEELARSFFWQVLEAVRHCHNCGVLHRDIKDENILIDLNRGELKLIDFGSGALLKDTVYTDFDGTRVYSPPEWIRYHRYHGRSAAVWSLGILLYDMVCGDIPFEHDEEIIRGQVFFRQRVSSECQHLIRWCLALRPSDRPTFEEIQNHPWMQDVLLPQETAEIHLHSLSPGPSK
T1 sequence (Q00535 whole entry): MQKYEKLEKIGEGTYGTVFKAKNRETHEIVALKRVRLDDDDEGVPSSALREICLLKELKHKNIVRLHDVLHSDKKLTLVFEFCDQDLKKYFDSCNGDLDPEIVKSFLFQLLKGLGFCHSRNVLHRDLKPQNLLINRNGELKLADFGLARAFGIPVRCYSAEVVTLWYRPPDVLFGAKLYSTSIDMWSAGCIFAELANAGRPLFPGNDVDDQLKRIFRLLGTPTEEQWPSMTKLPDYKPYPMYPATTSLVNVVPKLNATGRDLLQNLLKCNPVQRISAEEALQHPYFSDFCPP
T1 sequence (Q15078 99-307 partner limits assumed): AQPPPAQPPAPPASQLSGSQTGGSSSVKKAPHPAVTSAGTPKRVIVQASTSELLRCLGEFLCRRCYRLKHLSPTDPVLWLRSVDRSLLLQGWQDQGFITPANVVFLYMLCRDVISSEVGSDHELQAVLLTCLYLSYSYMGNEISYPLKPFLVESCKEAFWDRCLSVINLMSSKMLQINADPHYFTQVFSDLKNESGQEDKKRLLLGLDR
T4 sequence (P22518 whole entry): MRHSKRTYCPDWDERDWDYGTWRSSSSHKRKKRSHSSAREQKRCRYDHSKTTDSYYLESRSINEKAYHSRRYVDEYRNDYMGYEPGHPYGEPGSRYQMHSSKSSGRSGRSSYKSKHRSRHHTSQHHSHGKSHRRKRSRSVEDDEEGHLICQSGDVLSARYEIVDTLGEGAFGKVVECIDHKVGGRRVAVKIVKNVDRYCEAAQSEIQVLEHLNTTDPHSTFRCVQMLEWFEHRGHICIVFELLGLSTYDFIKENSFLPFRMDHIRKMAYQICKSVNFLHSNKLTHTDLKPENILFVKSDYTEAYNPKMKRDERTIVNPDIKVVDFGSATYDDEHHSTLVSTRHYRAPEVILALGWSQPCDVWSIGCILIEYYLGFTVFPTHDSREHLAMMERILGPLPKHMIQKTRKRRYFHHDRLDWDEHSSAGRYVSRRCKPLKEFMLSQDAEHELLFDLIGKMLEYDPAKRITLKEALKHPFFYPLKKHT
T6 sequence (Q96GD4 whole entry): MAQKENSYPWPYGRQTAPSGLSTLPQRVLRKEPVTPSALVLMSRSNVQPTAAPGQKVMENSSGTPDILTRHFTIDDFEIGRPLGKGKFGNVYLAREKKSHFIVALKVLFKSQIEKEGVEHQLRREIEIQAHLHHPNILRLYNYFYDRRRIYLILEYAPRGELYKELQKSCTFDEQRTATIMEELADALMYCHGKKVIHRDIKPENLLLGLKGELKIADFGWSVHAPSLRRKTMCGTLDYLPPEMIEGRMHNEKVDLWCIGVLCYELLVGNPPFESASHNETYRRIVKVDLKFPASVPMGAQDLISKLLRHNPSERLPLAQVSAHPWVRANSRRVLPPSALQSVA

Row | Molecule | IC50 [1, 19] | IC50 ([2]; Homo sapiens, HL-60) | IC50 [3, 20] | IC50 [4, 21] | IC50 [5, 22] | IC50 [6, 23] | IC50 [7, 24] | IC50 ([8]; Homo sapiens, PBMC) | IC50 [10] | IC50 [11] | IC50 [12] | IC50 [16] | melting point | IC50 [18] | further results
1 | NC(=O)NN=Cc1ccc(Br)cc1 [Compound 3d, 4-Bromobenzaldehyde Semicarbazone] | 23.1 ± 0.8 µM | 16.9 ± 1.1 µM | > 100 µM | 25.2 ± 2.43 µM | 33.5 ± 0.75 µM | 37.2 ± 0.84 µM | > 100 µM | 46.3 ± 0.97 µM | > 10 µM | > 10 µM | > 10 µM | > 10 µM | 237 to 239 °C | > 10 µM | IC50 [9]: > 10 µM; IC50 [13]: > 10 µM; IC50 [14]: > 10 µM; IC50 [15]: > 10 µM; IC50 [17]: > 10 µM
2 | NC(=O)NN=Cc1cccs1 [Compound 3k, 2-Thiophenecarboxaldehyde Semicarbazone] | > 100 µM | > 100 µM | > 100 µM | > 100 µM | > 100 µM | > 100 µM | > 100 µM | > 100 µM |  |  |  |  | 227 to 230 °C |  | 
3 | NC(=O)NN=Cc1ccc(Cl)c(Cl)c1 [Compound 3f, 3,4-Dichlorobenzaldehyde Semicarbazone] | 8.61 ± 0.35 µM | 14.2 ± 1.41 µM | > 100 µM | 26.3 ± 1.86 µM | 23.3 ± 1.55 µM | > 100 µM | > 100 µM | > 100 µM | > 10 µM | > 10 µM | > 10 µM | > 10 µM | 246 to 247 °C | > 10 µM | IC50 [9]: > 10 µM; IC50 [13]: > 10 µM; IC50 [14]: > 10 µM; IC50 [15]: > 10 µM; IC50 [17]: > 10 µM
4 | NC(=O)N/N=C/c1ccc([N+](=O)[O-])o1 [Compound 3m, 5-Nitro-2-furfuraldehyde Semicarbazone] |  | 24.33 ± 0.16 µM | 28.4 ± 8.56 µM |  | 8.56 ± 0.01 µM |  | 31.9 ± 0.07 µM | > 100 µM | > 10 µM | > 10 µM | > 10 µM | > 10 µM |  | > 10 µM | 
5 | COc1cc(C=NNC(N)=O)ccc1O [Compound 3b, 4-Hydroxy-3-methoxybenzaldehyde Semicarbazone] | > 100 µM | > 100 µM | > 100 µM | > 100 µM | > 100 µM | > 100 µM | > 100 µM | > 100 µM |  |  |  |  | 237 to 239 °C |  | 
6 | COc1ccc(C=NNC(N)=O)cc1 [Compound 3a, 4-Methoxybenzaldehyde Semicarbazone] | > 100 µM | > 100 µM | > 100 µM | > 100 µM | > 100 µM | > 100 µM | > 100 µM | > 100 µM |  |  |  |  | 210 to 212 °C |  | 
7 | 2,6-Pyridinedicarboxaldehyde Semicarbazone [Compound 3j] |  |  |  |  |  |  |  |  |  |  |  |  |  |  | IC50 ([1]; 72 h of incubation): > 100 µM; IC50 [2]: > 100 µM; IC50 ([3]; 72 h of incubation): > 100 µM; IC50 ([4]; 72 h of incubation): > 100 µM; IC50 ([5]; 72 h of incubation): > 100 µM; IC50 ([6]; 72 h of incubation): > 100 µM; IC50 ([7]; 72 h of incubation): > 100 µM; IC50 [8]: > 100 µM
8 | NC(=O)NN=Cc1ccncc1 [Compound 3i, 4-Pyridinecarboxaldehyde Semicarbazone] | > 100 µM | > 100 µM | > 100 µM | > 100 µM | > 100 µM | > 100 µM | > 100 µM | > 100 µM |  |  |  |  | 225 to 226 °C |  | 
